Source: article PMC6359455, “Partial Solvation Parameters of Drugs as a New Thermodynamic Tool for Pharmaceutics” (Pharmaceutics, 2019)

Experiments:
[1] = Residual solid XRPD analysis after solubility equilibration in solvents; format: physicochemical; conditions: 24 h equilibration at room temperature in solvent
Experimental: All experiments were performed in triplicate. The drug concentration in the solvent bulk phase was determined simultaneously with a residual solid analysis of the drug by means of XRPD to detect possible solvent-mediated phase changes. Such residual solid analysis has been published before for a different miniaturized assay. […] The closed vials were equilibrated for 24 h by magnetic stirring at room temperature. […] An isocratic flow of a mixture of solvent A and solvent B was initially applied for 0.3 min at a flow rate of 0.75 mL/min. […] Table 1 summarizes the experimental conditions (initial composition of mobile phase, detection wave length) used for the different drugs. For solid state analysis, approx. 10-20 mg of the residual wet solids was manually transferred into a 96-well MultiScreen® Solubility Filter Plate (Millipore, Bedford, MA, USA) by a spatula. The filter plate was immediately sealed with adhesive acetate foil for microtest well plates (Sarstedt Inc., Newton, NC, USA) to minimize solvent evaporation. Solid state analysis of residual solids was based on a high-throughput XRPD method using a […] […] Samples were analyzed directly in the 96-well filter plate with an exposure time of 5 min per well.

[2] = Cohesive energy (solubility-parameter) components by the PSP/LSER method
[3] = LSER descriptors by PSP approach from experimental inverse gas chromatography (IGC) data; format: physicochemical; conditions: initial or tentative estimates; for A (PSP): LSER acidity descriptor; for B (PSP): LSER basicity descriptor; for S (PSP): LSER polarity descriptor
Experimental: (§1) Inverse gas chromatography (IGC) was used to analyze solid samples packed into a chromatographic column as stationary phase. The equipment was a surface energy analyzer (iGC-SEA) from Surface Measurement Systems Ltd. (London, UK) and about 200 mg of each drug was inserted into silanized glass columns (3 mm inner diameter) by employing a standardized packing method with silanized glass wool that was used at both ends of the column as fixation. Prior to each measurement, the samples were conditioned for 1 h at 30 °C with dry helium with 0% relative humidity at a flow rate of 15 standard cubic centimeters per minute (sccm). Dead volume of the system was determined by injecting the inert probe methane prior and after each measurement. This stationary phase was flushed with an inert carrier gas—helium in the present study. Measuring conditions were the same as applied for sample conditioning, except for a flow rate of 10 sccm that was used. For all experiments, a relative surface coverage of 5% was selected.
The extent of interactions between the solid phase of interest and the probe gas is obtained by the net retention volume VN:(31) VN=j/mF(tR−t0)T/273.15, where T is the column temperature, F is the carrier gas flow rate at 1 atm and 273.15 K, m is the sample mass, tR is the retention time of the absorbed probe gas and t0 is the mobile phase hold up time, and finally, j represents the James–Martin correction (that adjusts retention time for the pressure drop effect in the column bed). The calculated retention volume VN is then used to estimate the mass activity coefficient, Ω at infinite dilution:(32) ln(Ω)=ln(273.15R/p0M1VN)−p0(B11−V1)/RT, where po is the saturation pressure and M is the molecular mass, while B11 is the second virial coefficient and V1 holds for molar volume of the probe gas. Conversion of the mass activity coefficient Ω to mole fraction activity coefficient γ (at infinite dilution) is done via the following equation:(33) lnγ1res,∞=ln(Ω1M1/M2)−(lnr1/r2+1−r1/r2)=r1χ12. and provided the basis for further thermodynamic analysis, as described in the Results section.
The PSP approach was used to characterize the studied drugs, that is, to determine their LSER descriptors from the experimental IGC data. The McGowan volume, Vx, is an atom-specific quantity and, thus, it is obtained either from the ACD software or from the freely accessible database via their SMILES form. […].
A and B descriptors were then obtained from IGC data with hydrogen-bonding probes (acidic, like chloroform, basic, like acetone, and homosolvated, like ethanol) correlated with Equation (34).

[4] = Surface energy components by IGC with the PSP/LSER method; format: physicochemical; conditions: for γd (dispersion component of surface energy): IGC, Dorris–Gray method, amorphous drug, 30 °C; for γhb (hydrogen-bonding surface energy component) / γa (acidic surface energy component) / γb (basic surface energy component) / γtot (total surface energy): PSP/LSER method; for γa (acidic surface energy component) / γb (basic surface energy component): Equation (27), unit assumed; for γtot (total surface energy): Equation (36)
Experimental: as §1
The PSP framework can also be used for the estimation of the surface energy components of the studied drugs. However, there are practically no data on the total surface energies of drugs available in the literature. Instead, the dispersion components, γd, were determined by the Dorris–Gray method. This dispersion component is practically equivalent to our nonhydrogen-bonding component, γVES. Thus, we may use Equation (29) in the equivalent form of Equation (36) and obtain the total surface energy of the drugs, γtot: (36) γtot=γd3.1Vx+E+S+2AB/3.1Vx+E+S.
In a similar manner, the acidity and basicity components of the surface energy are obtained from Equation (27).

[5] = Differential scanning calorimetry (enthalpy of fusion); format: physicochemical; conditions: DSC, 10 °C/min, triplicate
Experimental: Differential scanning calorimetry (DSC) thermograms were obtained using a DSC 1 instrument from Mettler-Toledo AG (Greifensee, Switzerland). The instrument was calibrated for temperature and enthalpy using indium. Nitrogen was used as protective gas (150 mL/min). Samples (2–3 mg) were placed in 40 μL aluminum pans with pierced aluminum lids (Mettler-Toledo AG, Greifensee, Switzerland). The melting onset temperature (Tm) and the enthalpy of fusion (ΔHf) were determined by heating the samples at 10 °C/min from 25 °C to a maximum temperature of 300 °C. All DSC measurements were carried out in triplicate.

SMILES | Residual solid form after solubility equilibration (XRPD) [1] | σGa (acidity PSP) [2] [MPa^0.5] | σGb (basicity PSP) [2] [MPa^0.5] | σd (dispersion PSP) [2] [MPa^0.5] | σhb (hydrogen-bonding PSP) [2] [MPa^0.5] | σp (polarity PSP) [2] [MPa^0.5] | A (PSP) [3] | B (PSP) [3] | S (PSP) [3] | γd (dispersion component of surface energy) [4] [mJ/m^2] | γhb (hydrogen-bonding surface energy component) [4] [mJ/m^2] | γa (acidic surface energy component) [4] [mJ/m^2] | γb (basic surface energy component) [4] [mJ/m^2] | γtot (total surface energy) [4] [mJ/m^2] | ΔH^m (heat of fusion) [5] [kcal/mol] | σtot (square root of total cohesive energy density, equivalent to δtot) [2] [MPa^0.5]
COc1ccccc1OCCNCC(O)COc1cccc2[nH]c3ccccc3c12 (stereo not shown) [Carvedilol, carvedilol] | a changed solid form in dichloromethane after equilibration | 3.92 | 6.68 | 19.75 | 8.14 | 9.91 | 0.50 | 1.45 | 3.19 | 47.83 | 5.13 | 1.51 | 4.37 | 52.96 | 11.32 ± 0.0884 | 
CCOC(=O)N1CCC(=C2c3ccc(Cl)cc3CCc3cccnc32)CC1 [Loratadine, loratadine] |  |  |  | 19.11 |  | 9.87 | 0.00 | 0.6 ± 0.2 | 2.96 | 41.6 | 0.00 |  |  | 41.60 | 6.685 ± 0.043 | 
CCC(C)(C)C(=O)O[C@H]1C[C@@H](C)C=C2C=C[C@H](C)[C@H](CC[C@@H]3C[C@@H](O)CC(=O)O3)[C@H]21 [Simvastatin, simvastatin] |  |  |  |  |  |  | 0.20 | 0.7 ± 0.2 | 4.28 | 57.36 | 2.64 | 0.71 | 2.47 | 60.00 | 6.969 ± 0.198 | 
COc1cc(C(=O)NS(=O)(=O)c2ccccc2C)ccc1Cc1cn(C)c2ccc(NC(=O)OC3CCCC3)cc12 [Zafirlukast, zafirlukast] | at least one different solid form following equilibration | 4.03 | 6.94 | 19.60 | 9.01 | 10.33 | 0.71 | 2.1 | 4.66 | 49.43 | 5.64 | 1.64 | 4.85 | 55.07 | 4.68 ± 0.406 | 23.92
CC(=O)N1CCN(c2ccc(OCC3COC(Cn4ccnc4)(c4ccc(Cl)cc4Cl)O3)cc2)CC1 (stereo not shown) [Ketoconazole, ketoconazole] |  | 0.00 | 4.26 | 19.52 | 0.00 | 8.45 | 0.00 | 0.7 ± 0.3 | 2.75 | 45.86 | 0.00 | 0 | 1.84 | 45.86 | 12.71 ± 0.141 | 21.27
